The record followed here is ChEMBL document CHEMBL3044623, “Feeding cessation effects of chlorantraniliprole, a new anthranilic diamide insecticide, in comparison with several insecticides in distinct chemical classes and mode-of-action groups” (2009).

The test system of assay [1] is Helicoverpa zea. The assay is described as follows: Antifeedant activity against third-instar larval stage of Helicoverpa zea (corn earworm) infested compound-treated leaf assessed as time required to stop feeding at 124 mg a.i/L after 48 hr by leaf disk assay (reference value: > 2880 min). Type of assay: functional.
The subject of assay [2] is Trichoplusia ni. The experiment in a line: Antifeedant activity against third-instar larval stage of Trichoplusia ni (cabbage looper) infested compound-treated leaf assessed as reduction in feeding damage at 124 mg a.i/L after 48 hr by leaf disk assay relative to untreated control. The assay is classed as functional. Also noted: scale not given: the % may be the effect or the level left.

Assay [3] concerns Spodoptera exigua. The assay is described as follows: Antifeedant activity against third-instar larval stage of Spodoptera exigua infested compound-treated leaf assessed as reduction in feeding damage at 124 mg a.i/L after 48 hr by leaf disk assay relative to untreated control. Type of assay: functional. More on the design: scale not given: the % may be the effect or the level left.

Assay [4] concerns Spodoptera exigua. The assay is described as follows: Antifeedant activity against third-instar larval stage of Spodoptera exigua infested compound-treated leaf assessed as time required to stop feeding at 124 mg a.i/L after 48 hr by leaf disk assay (reference value: > 2880 min). Type of assay: functional.
For assay [5], the system named is Plutella xylostella. The assay is described as follows: Antifeedant activity against third-instar larval stage of Plutella xylostella (diamondback moth) infested compound-treated leaf assessed as time required to stop feeding at 124 mg a.i/L after 48 hr by leaf disk assay (reference value: > 2880 min). The assay is classed as functional.
The test system of assay [6] is Helicoverpa zea. The assay is described as follows: Antifeedant activity against third-instar larval stage of Helicoverpa zea (corn earworm) infested compound-treated leaf assessed as reduction in feeding damage at 124 mg a.i/L after 48 hr by leaf disk assay relative to untreated control. More on the design: scale not given: the % may be the effect or the level left. Type of assay: functional.

For assay [7], the system named is Plutella xylostella. The assay is described as follows: Antifeedant activity against third-instar larval stage of Plutella xylostella (diamondback moth) infested compound-treated leaf assessed as reduction in feeding damage at 124 mg a.i/L after 48 hr by leaf disk assay relative to untreated control. The assay is classed as functional. Also noted: scale not given: the % may be the effect or the level left.

The test system of assay [8] is Trichoplusia ni. The assay is described as follows: Antifeedant activity against third-instar larval stage of Trichoplusia ni (cabbage looper) infested compound-treated leaf assessed as time required to stop feeding at 124 mg a.i/L after 48 hr by leaf disk assay (reference value: > 2880 min). Type of assay: functional.
In assay [9] the test system is Spodoptera exigua. The assay is described as follows: Antifeedant activity against third-instar larval stage of Spodoptera exigua infested compound-treated leaf assessed as time required to stop feeding at 936 mg a.i/L after 48 hr by leaf disk assay (reference value: > 2880 min). Type of assay: functional, organism-based.
Assay [10] concerns Helicoverpa zea. The experiment in a line: Antifeedant activity against third-instar larval stage of Helicoverpa zea (corn earworm) infested compound-treated leaf assessed as time required to stop feeding at 936 mg a.i/L after 48 hr by leaf disk assay (reference value: > 2880 min). The assay is classed as functional, organism-based.
The test system of assay [11] is Plutella xylostella. The assay is described as follows: Antifeedant activity against third-instar larval stage of Plutella xylostella (diamondback moth) infested compound-treated leaf assessed as reduction in feeding damage at 936 mg a.i/L after 48 hr by leaf disk assay relative to untreated control. Type of assay: functional, organism-based. More on the design: scale not given: the % may be the effect or the level left.

The test system of assay [12] is Spodoptera exigua. The assay is described as follows: Antifeedant activity against third-instar larval stage of Spodoptera exigua infested compound-treated leaf assessed as reduction in feeding damage at 936 mg a.i/L after 48 hr by leaf disk assay relative to untreated control. More on the design: scale not given: the % may be the effect or the level left. The assay is classed as functional, organism-based.

Assay [13] deals with Trichoplusia ni. The experiment in a line: Antifeedant activity against third-instar larval stage of Trichoplusia ni (cabbage looper) infested compound-treated leaf assessed as time required to stop feeding at 936 mg a.i/L after 48 hr by leaf disk assay (reference value: > 2880 min). The assay is classed as functional, organism-based.
For assay [14], the system named is Helicoverpa zea. The experiment in a line: Antifeedant activity against third-instar larval stage of Helicoverpa zea (corn earworm) infested compound-treated leaf assessed as reduction in feeding damage at 936 mg a.i/L after 48 hr by leaf disk assay relative to untreated control. Type of assay: functional, organism-based. More on the design: scale not given: the % may be the effect or the level left.

For assay [15], the system named is Trichoplusia ni. The assay is described as follows: Antifeedant activity against third-instar larval stage of Trichoplusia ni (cabbage looper) infested compound-treated leaf assessed as reduction in feeding damage at 936 mg a.i/L after 48 hr by leaf disk assay relative to untreated control. The assay is classed as functional, organism-based. More on the design: scale not given: the % may be the effect or the level left.

Assay [16] relates to Plutella xylostella. The experiment in a line: Antifeedant activity against third-instar larval stage of Plutella xylostella (diamondback moth) infested compound-treated leaf assessed as time required to stop feeding at 936 mg a.i/L after 48 hr by leaf disk assay (reference value: > 2880 min). The assay is classed as functional, organism-based.
For assay [17], the system named is Helicoverpa zea. The assay is described as follows: Antifeedant activity against third-instar larval stage of Helicoverpa zea (corn earworm) infested compound-treated leaf assessed as time required to stop feeding at 167 mg a.i/L after 48 hr by leaf disk assay (reference value: > 2880 min). The assay is classed as functional.
Assay [18] deals with Spodoptera exigua. The assay is described as follows: Antifeedant activity against third-instar larval stage of Spodoptera exigua infested compound-treated leaf assessed as reduction in feeding damage at 167 mg a.i/L after 48 hr by leaf disk assay relative to untreated control. More on the design: scale not given: the % may be the effect or the level left. The assay is classed as functional.

In assay [19] the test system is Plutella xylostella. The experiment in a line: Antifeedant activity against third-instar larval stage of Plutella xylostella (diamondback moth) infested compound-treated leaf assessed as reduction in feeding damage at 167 mg a.i/L after 48 hr by leaf disk assay relative to untreated control. The assay is classed as functional. More on the design: scale not given: the % may be the effect or the level left.

For assay [20], the system named is Trichoplusia ni. The experiment in a line: Antifeedant activity against third-instar larval stage of Trichoplusia ni (cabbage looper) infested compound-treated leaf assessed as reduction in feeding damage at 167 mg a.i/L after 48 hr by leaf disk assay relative to untreated control. The assay is classed as functional. Also noted: scale not given: the % may be the effect or the level left.

Assay [21] relates to Spodoptera exigua. The assay is described as follows: Antifeedant activity against third-instar larval stage of Spodoptera exigua infested compound-treated leaf assessed as time required to stop feeding at 167 mg a.i/L after 48 hr by leaf disk assay (reference value: > 2880 min). Type of assay: functional.
In assay [22] the test system is Trichoplusia ni. The assay is described as follows: Antifeedant activity against third-instar larval stage of Trichoplusia ni (cabbage looper) infested compound-treated leaf assessed as time required to stop feeding at 167 mg a.i/L after 48 hr by leaf disk assay (reference value: > 2880 min). The assay is classed as functional.
In assay [23] the test system is Helicoverpa zea. The assay is described as follows: Antifeedant activity against third-instar larval stage of Helicoverpa zea (corn earworm) infested compound-treated leaf assessed as reduction in feeding damage at 167 mg a.i/L after 48 hr by leaf disk assay relative to untreated control. Type of assay: functional. More on the design: scale not given: the % may be the effect or the level left.

For assay [24], the system named is Plutella xylostella. The assay is described as follows: Antifeedant activity against third-instar larval stage of Plutella xylostella (diamondback moth) infested compound-treated leaf assessed as time required to stop feeding at 167 mg a.i/L after 48 hr by leaf disk assay (reference value: > 2880 min). Type of assay: functional.

Consider `CC1(C)[C@H](/C=C(\Cl)C(F)(F)F)[C@@H]1C(=O)O[C@@H](C#N)c1cccc(Oc2ccccc2)c1` [REL-LAMBDA CYHALOTHRIN], for which the Time with Helicoverpa zea [1] came to 7.3 min; with Spodoptera exigua [4] it was 5.4 min; in the assay on Plutella xylostella [5], 8.1 min; with Trichoplusia ni [8], 9.3 min. For the same compound, the Activity in the assay with Trichoplusia ni [2] stood at 99.9%; in the assay with Spodoptera exigua [3], 99.5%; in the assay with Helicoverpa zea [6], 99.9%; in the assay with Plutella xylostella [7] it was 99.6%.

Take METAFLUMIZONE: the TIME in the assay with Spodoptera exigua [9] was found to be 7.96 h; in the assay on Helicoverpa zea [10], 10.3 h; with Trichoplusia ni [13], 4.23 h; in the assay on Plutella xylostella [16], 6.04 h. Further, the Activity with Plutella xylostella [11] was 89.6%; with Spodoptera exigua [12], 47.4%; with Helicoverpa zea [14], 57.9%; in the assay on Trichoplusia ni [15] it was 87.6%.

For the compound `CNC(=O)c1cc(Cl)cc(C)c1NC(=O)c1cc(Br)nn1-c1ncccc1Cl` [CHLORANTRANILIPROLE], the Time was found to be 20.3 min with Helicoverpa zea [17], 25.3 min in the assay with Spodoptera exigua [21], 23.4 min in the assay on Trichoplusia ni [22] and 15.4 min with Plutella xylostella [24]. The Activity is recorded as 99% with Spodoptera exigua [18], 99.4% in the assay on Plutella xylostella [19], 99.4% in the assay on Trichoplusia ni [20] and 99.2% in the assay with Helicoverpa zea [23].
